In PubChem BioAssay AID1845203 (Molecular Pharmacology Branch, DTP, NCI, 2023):
“And” between values parts separate entries of the source, which are not always exact repeats. Equal values may be shown once.

System: G-401 tumor spheroids, viability % test/control
Assay: Anticancer human tumor G-401 cell line growth inhibition;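 also: spheroids exposed to compound for 7 days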;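 as to viability, T/C: 100% = DMSO vehicle-treated spheroids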
Settings: spheroids with HUVEC and MSC; for viability, T/C: stronger effect = lower value
In short: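 Complex spheroids of malignant cells with endothelial cells and mesenchymal stem cells; agents alone or combined, from near clinical Cmax (or 10 microM if unknown) down in half-log steps, 0.25% DMSO final.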

## CC(C)n1c(=O)n(C)c2cnc3cc(F)c(-c4ccc(OCCCN5CCCCC5)nc4)cc3c21 + COc1cc2c(cc1O)CCNC21CSC2c3c(OC(C)=O)c(C)c4c(c3C(COC1=O)N1C(O)C3Cc5cc(C)c(OC)c(O)c5C(C21)N3C)OCO4
Curve of first compound, second compound 30 pM
  IC50: < 31.6 nM
Curve of first compound, second compound 94.9 pM
  IC50: < 31.6 nM
Curve of first compound, second compound 0.0003 µM
  IC50: < 31.6 nM
Curve of first compound, second compound 0.000949 µM
  IC50: < 31.6 nM
Curve of first compound, second compound 0.003 µM
  IC50: < 31.6 nM
Second compound 30 pM, first compound 0.0316 µM
  viability, T/C: 43.6%
Second compound 30 pM, first compound 0.1 µM
  viability, T/C: 35.7%
Second compound 30 pM, first compound 0.316 µM
  viability, T/C: 35%
Second compound 30 pM, first compound 1 µM
  viability, T/C: 46.2%
Second compound 30 pM, first compound 3.16 µM
  viability, T/C: 36.9%
Second compound 30 pM, first compound 10 µM
  viability, T/C: 19%
Second compound 94.9 pM, first compound 0.0316 µM
  viability, T/C: 19.1%
Second compound 94.9 pM, first compound 0.1 µM
  viability, T/C: 17.3%
Second compound 94.9 pM, first compound 0.316 µM
  viability, T/C: 18.1%
Second compound 94.9 pM, first compound 1 µM
  viability, T/C: 21.6%
Second compound 94.9 pM, first compound 3.16 µM
  viability, T/C: 23.9%
Second compound 94.9 pM, first compound 10 µM
  viability, T/C: 23%
Second compound 0.0003 µM, first compound 0.0316 µM
  viability, T/C: 15.6%
Second compound 0.0003 µM, first compound 0.1 µM
  viability, T/C: 12.8%
Second compound 0.0003 µM, first compound 0.316 µM
  viability, T/C: 16.4%
Second compound 0.0003 µM, first compound 1 µM
  viability, T/C: 19.7%
Second compound 0.0003 µM, first compound 3.16 µM
  viability, T/C: 18.4%
Second compound 0.0003 µM, first compound 10 µM
  viability, T/C: 17.9%
Second compound 0.000949 µM, first compound 0.0316 µM
  viability, T/C: 7.44%
Second compound 0.000949 µM, first compound 0.1 µM
  viability, T/C: 7.47%
Second compound 0.000949 µM, first compound 0.316 µM
  viability, T/C: 7.71%
Second compound 0.000949 µM, first compound 1 µM
  viability, T/C: 11.5%
Second compound 0.000949 µM, first compound 3.16 µM
  viability, T/C: 12.2%
Second compound 0.000949 µM, first compound 10 µM
  viability, T/C: 10.6%
Second compound 0.003 µM, first compound 0.0316 µM
  viability, T/C: 0.13%
Second compound 0.003 µM, first compound 0.1 µM
  viability, T/C: 0.16%
Second compound 0.003 µM, first compound 0.316 µM
  viability, T/C: 0.15%
Second compound 0.003 µM, first compound 1 µM
  viability, T/C: 0.36%
Second compound 0.003 µM, first compound 3.16 µM
  viability, T/C: 0.4%
Second compound 0.003 µM, first compound 10 µM
  viability, T/C: 0.44%

## Cc1sc2c(c1C)C(c1ccc(Cl)cc1)=NC(CC(=O)Nc1ccc(O)cc1)c1nnc(C)n1-2 (configuration not stated) + Cn1nnc2c(C(N)=O)ncn2c1=O
Curve of first compound, second compound 1 µM
  IC50: 169 nM
Curve of first compound, second compound 3.16 µM
  IC50: 179 nM
Curve of first compound, second compound 10 µM
  IC50: 163 nM
Curve of first compound, second compound 31.6 µM
  IC50: 147 nM
Curve of first compound, second compound 100 µM
  IC50: 148 nM
Second compound 1 µM, first compound 0.00949 µM
  viability, T/C: 108%
Second compound 1 µM, first compound 0.03 µM
  viability, T/C: 83%
Second compound 1 µM, first compound 0.0949 µM
  viability, T/C: 67.4%
Second compound 1 µM, first compound 0.3 µM
  viability, T/C: 37.6%
Second compound 1 µM, first compound 0.949 µM
  viability, T/C: 13.4%
Second compound 1 µM, first compound 3 µM
  viability, T/C: 10.3%
Second compound 3.16 µM, first compound 0.00949 µM
  viability, T/C: 93%
Second compound 3.16 µM, first compound 0.03 µM
  viability, T/C: 91.8%
Second compound 3.16 µM, first compound 0.0949 µM
  viability, T/C: 65.1%
Second compound 3.16 µM, first compound 0.3 µM
  viability, T/C: 35.6%
Second compound 3.16 µM, first compound 0.949 µM
  viability, T/C: 19.7%
Second compound 3.16 µM, first compound 3 µM
  viability, T/C: 8.06%
Second compound 10 µM, first compound 0.00949 µM
  viability, T/C: 101%
Second compound 10 µM, first compound 0.03 µM
  viability, T/C: 77.3%
Second compound 10 µM, first compound 0.0949 µM
  viability, T/C: 63.5%
Second compound 10 µM, first compound 0.3 µM
  viability, T/C: 38%
Second compound 10 µM, first compound 0.949 µM
  viability, T/C: 20.9%
Second compound 10 µM, first compound 3 µM
  viability, T/C: 9.13%
Second compound 31.6 µM, first compound 0.00949 µM
  viability, T/C: 84.5%
Second compound 31.6 µM, first compound 0.03 µM
  viability, T/C: 82.6%
Second compound 31.6 µM, first compound 0.0949 µM
  viability, T/C: 56.1%
Second compound 31.6 µM, first compound 0.3 µM
  viability, T/C: 34%
Second compound 31.6 µM, first compound 0.949 µM
  viability, T/C: 20.5%
Second compound 31.6 µM, first compound 3 µM
  viability, T/C: 4.42%
Second compound 100 µM, first compound 0.00949 µM
  viability, T/C: 102%
Second compound 100 µM, first compound 0.03 µM
  viability, T/C: 83%
Second compound 100 µM, first compound 0.0949 µM
  viability, T/C: 64.8%
Second compound 100 µM, first compound 0.3 µM
  viability, T/C: 30.4%
Second compound 100 µM, first compound 0.949 µM
  viability, T/C: 11.2%
Second compound 100 µM, first compound 3 µM
  viability, T/C: 4.09%

## Cc1sc2c(c1C)C(c1ccc(Cl)cc1)=NC(CC(=O)Nc1ccc(O)cc1)c1nnc(C)n1-2 (configuration not stated)
Compound 0.00949 µM
  viability, T/C: 93.3% and 106% and 91.1%
Compound 0.03 µM
  viability, T/C: 86.6% and 75.1% and 80.9%
Compound 0.0949 µM
  viability, T/C: 65.4% and 56.4% and 67.6%
Compound 0.3 µM
  viability, T/C: 34.7% and 35.5% and 37.8%
Compound 0.949 µM
  viability, T/C: 20.1% and 20% and 21.8%
Compound 3 µM
  viability, T/C: 10% and 11.8% and 7.68%
Curve of compound
  IC50: 173 nM and 122 nM and 192 nM
